Results: patent publication US12365709B2, “Immunomodulatory peptide” (INSTITUT NATIONAL UNI[…]-FRANCOIS CHAMPOLLION, priority 2017, dated 2025)
No end group written: not given here.

Key:
[1] = test system: macrophages derived from human monocytes; test: Production of ROS by macrophages derived from human monocytes in response to C. albicans (luminol chemiluminescence); format: cell-based; settings: macrophages treated 24 hours; yeast ratio per macrophage 3:1; vs untreated
Text: To analyse the production of ROS, the macrophages derived from human monocytes have been treated, or not, with the peptide P17, P17, non-amidated, or with the following P17 fragments, P17(1-5), P17(1-7), P17(1-9), P17(1-11), P17(3-13), P17(5-13), P17(7-13) and P17(9-13); the fragments P17(1-5), P17(1-7), P17(1-9), P17(1-11) not being amidated at the C-terminal […] and the fragments P17(3-13), P17(5-13), P17(7-13) and P17(9-13) being amidated at the C-terminal. Then, the macrophages derived from human monocytes thus treated have been incubated at 37° C. for 24 hours. The production of reactive derivatives of oxygen (ROS) has been measured by chemiluminescence in the presence of 5-amino-2,3-dihydro-1,4-phthalazinedione (luminol) (EnVision; PerkinElmer). The chemiluminescence generation has been continually measured for 1 hour 30 minutes after incubation of cells with luminol (66 μM) in the presence, or not, of C. albicans (yeast ratio per macrophage: 3:1).

[2] = test system: macrophages derived from human monocytes; test: Removal of C. albicans by macrophages derived from human monocytes (CFU); format: cell-based; settings: macrophages treated with peptide 24 hours, then C. albicans 0.3 yeasts per macrophage, 4 hours; vs untreated
Protocol: The macrophages derived from human monocytes have been treated, or not, with the peptide P17 or fragments of it then incubated at 37° C. for 24 hours. These cells have been incubated for 40 minutes at 37° C. with C. albicans (at a ratio of 0.3 yeasts per macrophage) and the non-bound yeasts are removed by washing. These macrophages are thus incubated at 37° C. for 4 hours. After incubation, the environment has been removed and the cells have been lysed. The units forming colonies (CFU) of C. albicans have been determined on Sabouraud boxes after spreading and culturing for 48 hours at 37° C.

[3] = test system: EL4 tumour cells; test: Number of lymphoma T tumour cells (EL4) in the presence of murine macrophages; format: cell-based; settings: co-culture with macrophages polarised by P17; vs untreated macrophages
Protocol: Peritoneal murine macrophages have been treated, or not, with the peptide P17 then incubated at 37° C. for 24 hours. These macrophages have been incubated for 40 minutes at 37° C. with luminescent lymphoma T cells (EL4-luc) and unbound cells are removed by washing. These macrophages are thus incubated at 37° C. for 4 hours. After incubation, the number of lymphoma T cells (EL4-luc) is evaluated by chemiluminescence.

[4] = test system: C. albicans; test: Experimental gastrointestinal Candida murine model; format: in vivo; settings: P17 10 μg per mouse i.p., vs untreated mice
Protocol: For in vivo experiments, a gastrointestinal infection with the C. albicans strain 98/26135 has been established by feeding with 50×10^6 of C. albicans per mouse (n=8 per group). No antibiotic or immunosuppressant treatment has been used to facilitate the infection of mucous membranes of the oral cavity and of the gastrointestinal tract. The mice have been treated intraperitoneally (i.p.) with the peptide P17 (10 μg per mouse) or with a saline solution for control groups, 1 day before the injection with C. albicans, 1 day after infection and then every 2 days (5 injections). The body weight of each mouse has been recorded daily. On the 8th day after treatment (7 days after infection), all mice have been euthanised by asphyxiation with CO2.
The oesophagus, the stomach, the caecum and the liver have been removed aseptically to evaluate the colonisation by C. albicans. The peritoneal macrophages of the mice have been sampled and the ex vivo capacities thereof to remove and to phagocytose Candida albicans have been determined. The production of ROS, IL-(3 and IL-12 by these macrophages in response to Candida albicans have also been evaluated.

[5] = test system: macrophages derived from human monocytes; test: Binding and phagocytosis of C. albicans by macrophages derived from human monocytes; format: cell-based; settings: macrophages treated 24 hours, GFP yeasts, vs untreated
Protocol: To analyse the binding and the phagocytosis of C. albicans, macrophages derived from human monocytes have been treated, or not, with the peptide P17, then incubated at 37° C. for 24 hours. The macrophages derived from human monocytes have been brought together with the yeasts marked GFP (ratio 1/6) then incubated at 4° C. for 20 minutes, in order to evaluate the binding. The phagocytosis has been evaluated after 1 hour of incubation at 37° C. The quantity of C. albicans bound or ingested by macrophages derived from human monocytes has been determined by measuring the fluorescence by using a fluorimeter (PerkinElmer EnVision).

[6] = test system: C-type lectin receptors; test: Protein expression of C-type lectin receptors (flow cytometry); format: cell-based, human; settings: P17 200 μg/ml, 24 hours
Protocol: To analyse the protein level of C-type lectin receptors, the macrophages derived from human monocytes have been treated, or not, with the peptide P17 (200 μg/ml) then incubated at 37° C. for 24 hours. The cells collected have been centrifugated at 1500 rpm for 10 minutes and […] have been suspended in the PBS supplemented with 1% foetal calf serum (FCS). The cells have been marked with antibodies coupled with different fluorochromes directed against the Dectin-1 receptor (mAb; R&D FAB1859C-100, 1/40), DC-SIGN (mAb; BD Biosciences 551 265, 1/20) CD16 (mAb; PNIM 0814, 1/20), CD36 (mAb; BD Biosciences 550 956, 1/40) and the mannose receptor (specific MR (mannose receptor) ligand) conjugated FITC (Sigma A7790, 1 mg/ml 1/100)). The analysis has been carried out by flow cytometry (Becton Dickinson FACScalibur) over a population of 10000 cells.

[7] = test system: macrophages derived from human monocytes; test: Production of IL-1β, TNFα, IL-10 and IL-12 by macrophages derived from human monocytes in response to C. albicans (ELISA); format: cell-based; settings: P17 24 hours then C. albicans 3:1 for 8 hours
Protocol: Macrophages derived from human […] have been stimulated with the peptide P17 for 24 hours, then these macrophages activated by the peptide P17 have been stimulated with C. albicans at a yeast per macrophage ratio of 3:1 for 8 hours. The production of IL-1β, TNFα, IL-10 and IL-12 in cell supernatants has been determined by ELISA (OptiElA BD Biosciences).

[8] = test system: peritoneal murine macrophages; test: Production of ROS by murine macrophages in response to murine lymphoma T tumour cells (EL4); format: cell-based; settings: murine macrophages treated with P17 24 hours
Protocol: To analyse the production of ROS, peritoneal murine macrophages have been treated, or not, with the peptide P17 then incubated at 37° C. for 24 hours. The production of reactive derivatives of oxygen (ROS) has been measured by chemiluminescence in the presence of 5-amino-2,3-dihydro-1,4-phthalazinedione (luminol) (EnVision; PerkinElmer). The chemiluminescence generation has been continually measured for 1 hour 30 minutes after incubation of cells with luminol […] in the presence, or not, of EL4 lymphoma T tumour cells.

Substance | production of ROS in response to C. albicans [1] | removal of C. albicans by macrophages [2] | other results
EKIKAKL [P17(7-13)] | Only the fragments P17(3-13) and P17(5-13) conserve the activity | – | –
IKAKL [P17(9-13)] | Only the fragments P17(3-13) and P17(5-13) conserve the activity | – | –
ILEKIKAKL [P17(5-13)] | conserve the activity | activity close to that of P17 | –
KEILEKIKAKL [P17(3-13)] | conserve the activity | activity close to that of P17 | –
LFKEI (LFKEI-OH) [P17(1-5)] | does not induce the production of ROS | does not induce the production of ROS, nor the removal of Candida albicans | –
LFKEILE (LFKEILE-OH) [P17(1-7)] | does not induce the production of ROS | does not induce the production of ROS, nor the removal of Candida albicans | –
LFKEILEKI (LFKEILEKI-OH) [P17(1-9)] | does not induce the production of ROS | does not induce the production of ROS, nor the removal of Candida albicans | –
LFKEILEKIKA (LFKEILEKIKA-OH) [P17(1-11)] | does not induce the production of ROS | does not induce the production of ROS, nor the removal of Candida albicans | –
LFKEILEKIKAKL [P17] (LFKEILEKIKAKL-NH2) | higher production of ROS | considerably increases the capacity of human macrophages to remove in vitro C. albicans | number of EL4 tumour cells [3]: decreases significantly; loss of body weight ([4]; mice with gastrointestinal candidiasis): lesser loss of weight; gastrointestinal colonisation by Candida albicans ([4]; mice): significantly lower; capacity to recognise (binding) C. albicans ([5]; 4° C. for 20 minutes): greater capacity to recognise; capacity to phagocytose C. albicans ([5]; 1 hour at 37° C.): greater capacity to recognise and to phagocytose C. albicans; expression of C-type lectin receptors on the surface of macrophages [6]: overexpression of C-type lectin receptors; production of IL-1β [7]: higher production; production of TNFα [7]: higher production; production of ROS in response to EL4 tumour cells [8]: increased production of ROS
LFKEILEKIKAKL [non-amidated P17] (LFKEILEKIKAKL-OH; listed as Tetramorium bicarinatum) | C-terminal amidation of P17 is essential to the pro-inflammatory activity | – | –
